Laboratory results from patent US9834823B2, “Primers, assays and methods for detecting an E. coli subtype” (priority 2012, dated 2017).
“And” between values parts separate entries of the source, which are not always exact repeats. Equal entries are not always repeated.

Columns and labels:
Format in all cases: cell-based
[1] = system: extraintestinal Escherichia coli isolates; test: Antimicrobial susceptibility testing (CLSI breakpoints), Olmsted County isolates; conditions: for Resistance prevalence among H30 ST131: H30 ST131 subclone, N = 70; for Resistance prevalence among non-H30 ST131: non-H30 ST131, N = 10
[2] = system: Escherichia coli clinical isolates (ESBL-positive and ESBL-negative; ST131 subclones); test: Broth microdilution antimicrobial susceptibility, NorthShore ESBL case-control isolates; conditions: for No. of resistant isolates (column %), H30-Rx (N = 47): H30-Rx subclone isolates (N = 47) within the H30 ST131 subclone; for No. of resistant isolates (column %), H30, non-Rx (N = 15): H30 non-Rx isolates (N = 15) within the H30 ST131 subclone; for No. of resistant isolates (column %), H30 (N = 62): H30 subclone isolates (N = 62) among 71 E. coli ST131 isolates; for No. of resistant isolates (column %), Non-H30 (N = 9): non-H30 isolates (N = 9) among 71 E. coli ST131 isolates
Source text: As reported elsewhere, the 267 E. coli study isolates were collected between 2007 and 2010 as part of a prospective case-control study conducted at NorthShore University HealthSystem (Banerjee, R J et al. “Predictors and molecular epidemiology of community-onset extended-spectrum beta-lactamase (ESBL) Escherichia coli infection in a Midwestern community,” 2013 Infect Control Hosp Epidemiol; in press). Cases were defined as adults with ESBL-producing E. coli cultured from any specimen type. Controls were defined as the 1 or 2 patients with non-ESBL E. coli isolates identified just subsequent to the case isolate, and with the same specimen type and location of collection. Isolates obtained in the outpatient setting or within 48 hours of hospital admission were considered causes of community-associated infection. Further study details are as described (Banerjee, R J et al. “Predictors and molecular epidemiology of community-onset extended-spectrum beta-lactamase (ESBL) Escherichia coli infection in a Midwestern community,” 2013 Infect Control Hosp Epidemiol; in press).
The resistance score was the total number of agents to which an isolate was resistant. This study was approved by the NorthShore and VA Medical Center institutional review boards.

[3] = system: Escherichia coli clinical isolates from U.S. veterans; test: Susceptibility testing (broth microdilution or disk diffusion) at VAMCs with population back-calculations; conditions: for Prevalence of resistance, H30 ST131: H30 ST131 subclone isolates (H30 subclone vs. others); for Prevalence of resistance, ST131: ST131 isolates (ST131 vs. others); for Prevalence of resistance, Total (%): all isolates; for Estimated fraction due to ST131: fraction of resistance phenotype due to ST131; for Overall prevalence in population, %: resistance phenotype, back-calculated with 29% FQ resistance; for ST131's overall contribution to antimicrobial resistance within the source E. coli population: back-calculations
[4] = ESBL-negative isolates, All N = 167
[5] = ESBL-negative isolates, Non-ST131 N = 145
[6] = ESBL-negative isolates, ST131 N = 22
[7] = ESBL-positive isolates, All N = 100
[8] = ESBL-positive isolates, Non-ST131 N = 51
[9] = ESBL-positive isolates, ST131 N = 49
[10] = all non-H30 isolates (H30 subclone vs. others)
[11] = all non-ST131 isolates (ST131 vs. others)
[12] = resistance prevalence among H30 ST131 subclone isolates relative to all other isolates
[13] = resistance prevalence among ST131 isolates relative to all other isolates

Row | Molecule | No. of resistant isolates (column %) ([1]; All isolates, N = 299) | Resistance prevalence among H30 ST131 [1] | No. of resistant isolates (column %) ([1]; Other STs, N = 129) | No. of resistant isolates (column %) ([1]; ST9, N = 32) | No. of resistant isolates (column %) ([1]; ST69, N = 15) | No. of resistant isolates (column %) ([1]; ST73, N = 25) | No. of resistant isolates (column %) ([1]; ST127, N = 18) | No. of resistant isolates (column %) ([1]; ST131, N = 80) | Resistance prevalence among non-H30 ST131 [1] | No. resistant (column %) [2, 4] | No. resistant (column %) [2, 5] | No. resistant (column %) [2, 6] | No. resistant (column %) [2, 7] | No. resistant (column %) [2, 8] | No. resistant (column %) [2, 9] | No. of resistant isolates (column %), H30-Rx (N = 47) [2] | No. of resistant isolates (column %), H30, non-Rx (N = 15) [2] | No. of resistant isolates (column %), H30 (N = 62) [2] | No. of resistant isolates (column %), Non-H30 (N = 9) [2] | Prevalence of resistance, H30 ST131 [3] | also measured
1 | Cc1nnc(SCC2=C(C(=O)O)N3C(=O)[C@@H](NC(=O)Cn4cnnn4)[C@H]3SC2)s1 [Cefazolin, cefazolin] | 93 (31) | 58% | 30 (23) | 3 (9) | 5 (33) | 7 (28) | 3 (17) | 45 (57) | 50% | 10 (6) | 9 (6) | 1 (5) | 99 (99) | 51 (100) | 48 (98) | 43 (91) No. (column %) | 5 (33) No. (column %) | 48 (77) No. (column %) | 1 (11) No. (column %) | 27 | Prevalence of resistance, ST131 [3]: 29; Prevalence of resistance, Total (%) [3]: 17%; Prevalence of resistance, Others (%) [3, 10]: 14%; Prevalence of resistance, Others (%) [3, 11]: 12%; Estimated fraction due to ST131 [3]: .47; Overall prevalence in population, % [3]: 17%; Prevalence ratio of resistance [3, 12]: 2.0; Prevalence ratio of resistance [3, 13]: 2.3
2 | gentamicin | 29 (10) | 30% | 5 (4) | 0 | 0 | 0 | 1 (6) | 23 (29) | 20% | 12 (7) | 2 (1) | 10 (45) | 48 (48) | 30 (59) | 18 (37) | 15 (32) No. (column %) | 8 (53) No. (column %) | 23 (37) No. (column %) | 5 (56) No. (column %) | 28 | Prevalence of resistance, ST131 [3]: 29; Prevalence of resistance, Total (%) [3]: 11%; Prevalence of resistance, Others (%) [3, 10]: 5%; Prevalence of resistance, Others (%) [3, 11]: 3%; ST131's overall contribution to antimicrobial resistance within the source E. coli population [3]: 76%; Estimated fraction due to ST131 [3]: .76; Overall prevalence in population, % [3]: 11%; Prevalence ratio of resistance [3, 12]: 5.4; Prevalence ratio of resistance [3, 13]: 8.2
3 | trimethoprim-sulfamethoxazole [TMP/SMX] | 88 (29) | 47% | 37 (29) | 2 (6) | 8 (53) | 3 (12) | 1 (6) | 37 (46) | 40% | 31 (19) | 18 (12) | 13 (59) | 63 (63) | 39 (76) | 24 (49) | 21 (45) No. (column %) | 10 (67) No. (column %) | 31 (50) No. (column %) | 6 (67) No. (column %) | 47 | Prevalence of resistance, ST69 ([1]; ST69 isolates): 53%; Prevalence of resistance, ST131 ([1]; ST131 isolates): 46%; Prevalence of resistance, ST131 [3]: 42; Prevalence of resistance, Total (%) [3]: 22%; Prevalence of resistance, Others (%) [3, 10]: 14%; Prevalence of resistance, Others (%) [3, 11]: 13%; ST131's overall contribution to antimicrobial resistance within the source E. coli population ([3]; listed as TMP-SMZ): > 50% and 56%; Estimated fraction due to ST131 [3]: .56; Overall prevalence in population, % [3]: 22%; Prevalence ratio of resistance [3, 12]: 3.3; Prevalence ratio of resistance [3, 13]: 2.4
